IC50, AC50 and EC50 data for 15 compounds are collected here from ChEMBL document CHEMBL1201862, “PubChem BioAssay data set” (2004).

Active and inactive are the calls of the source.

One assay concerns the target T1, Estrogen receptor (Homo sapiens, UniProt P03372).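 Note: potency for inhibiting coactivator peptide recruitment to the receptor.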
T1 sequence (P03372 whole entry): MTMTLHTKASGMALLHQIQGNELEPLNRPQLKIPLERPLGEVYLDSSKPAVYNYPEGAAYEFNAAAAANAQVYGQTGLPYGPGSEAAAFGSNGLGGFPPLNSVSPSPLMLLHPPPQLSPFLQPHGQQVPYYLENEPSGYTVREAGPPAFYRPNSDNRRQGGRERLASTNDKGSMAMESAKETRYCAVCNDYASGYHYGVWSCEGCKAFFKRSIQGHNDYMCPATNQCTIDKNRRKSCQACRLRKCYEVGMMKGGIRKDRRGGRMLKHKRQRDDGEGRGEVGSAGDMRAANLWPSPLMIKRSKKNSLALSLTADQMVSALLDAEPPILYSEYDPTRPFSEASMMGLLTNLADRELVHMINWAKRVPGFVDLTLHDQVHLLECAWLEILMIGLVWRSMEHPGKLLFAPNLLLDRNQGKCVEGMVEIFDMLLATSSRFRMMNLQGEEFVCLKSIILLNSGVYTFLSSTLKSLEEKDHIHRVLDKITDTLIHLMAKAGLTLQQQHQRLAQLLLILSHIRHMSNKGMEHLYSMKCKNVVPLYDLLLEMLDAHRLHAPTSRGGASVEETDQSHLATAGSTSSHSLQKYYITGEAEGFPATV

Assay [1] concerns the target T2, C-C chemokine receptor type 6 (Homo sapiens, UniProt P51684).
T2 sequence (P51684 whole entry): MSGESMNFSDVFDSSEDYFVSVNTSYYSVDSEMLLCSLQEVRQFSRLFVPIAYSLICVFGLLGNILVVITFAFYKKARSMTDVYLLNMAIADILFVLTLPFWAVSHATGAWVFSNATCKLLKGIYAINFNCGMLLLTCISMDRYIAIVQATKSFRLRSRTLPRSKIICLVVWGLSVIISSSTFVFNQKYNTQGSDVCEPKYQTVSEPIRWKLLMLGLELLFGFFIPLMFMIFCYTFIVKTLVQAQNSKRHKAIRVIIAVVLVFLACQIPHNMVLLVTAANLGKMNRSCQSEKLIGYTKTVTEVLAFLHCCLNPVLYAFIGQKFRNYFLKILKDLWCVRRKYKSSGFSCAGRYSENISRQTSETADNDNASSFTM
The assay is described as follows: antagonism of CCR6 beta-arrestin recruitment – cell-based, luminescent beta-arrestin readout, dose response (AID 504728). The assay is classed as functional.

The target of the next assay is Beta-galactosidase (Escherichia coli, UniProt Q8VNN2). The assay is described as follows: detection-enzyme interference by beta-gal modulators – biochemical, E. coli enzyme, set 3, artefact control for CCR6 antagonist project, dose response (AID 504712). The assay is classed as functional.
Sequence of Beta-galactosidase (Q8VNN2 whole entry): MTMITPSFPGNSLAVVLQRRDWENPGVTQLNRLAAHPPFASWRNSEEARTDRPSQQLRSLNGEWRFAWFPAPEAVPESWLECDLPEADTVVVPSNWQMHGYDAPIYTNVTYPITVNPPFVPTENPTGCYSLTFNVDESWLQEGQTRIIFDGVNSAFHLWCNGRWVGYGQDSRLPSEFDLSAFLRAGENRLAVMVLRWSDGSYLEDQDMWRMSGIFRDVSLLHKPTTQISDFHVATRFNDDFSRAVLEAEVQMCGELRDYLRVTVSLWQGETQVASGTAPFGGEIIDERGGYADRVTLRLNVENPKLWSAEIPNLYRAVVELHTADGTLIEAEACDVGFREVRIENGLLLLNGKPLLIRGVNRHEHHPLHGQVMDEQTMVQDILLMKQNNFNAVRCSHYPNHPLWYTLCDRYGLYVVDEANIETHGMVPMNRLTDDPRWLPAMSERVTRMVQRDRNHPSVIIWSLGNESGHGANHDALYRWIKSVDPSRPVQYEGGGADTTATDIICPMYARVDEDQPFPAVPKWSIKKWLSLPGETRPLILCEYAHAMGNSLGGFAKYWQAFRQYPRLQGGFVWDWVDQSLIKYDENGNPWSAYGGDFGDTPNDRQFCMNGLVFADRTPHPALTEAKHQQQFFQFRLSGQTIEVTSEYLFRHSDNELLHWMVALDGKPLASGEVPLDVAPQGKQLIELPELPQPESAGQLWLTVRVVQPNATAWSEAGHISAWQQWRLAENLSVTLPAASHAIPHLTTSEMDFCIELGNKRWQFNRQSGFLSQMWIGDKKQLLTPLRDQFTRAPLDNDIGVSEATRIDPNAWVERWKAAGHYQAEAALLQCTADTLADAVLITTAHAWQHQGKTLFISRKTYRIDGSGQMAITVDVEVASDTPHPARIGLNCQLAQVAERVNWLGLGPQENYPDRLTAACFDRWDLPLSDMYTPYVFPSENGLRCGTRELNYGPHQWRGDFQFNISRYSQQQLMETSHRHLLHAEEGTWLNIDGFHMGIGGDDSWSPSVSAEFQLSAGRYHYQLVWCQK
The target of a further assay is Cytochrome P450 2D6 (Homo sapiens, UniProt P10635). Nature of the assay: qHTS Assay for Inhibitors and Substrates of Cytochrome P450 2D6. [Related pubchem assays: 410 ]. The assay is classed as ADME. The conditions noted are these: read-out: Potency. In general terms: qHTS replaces the single test concentration by a dilution series.
Assay [2] addresses Luciferin 4-monooxygenase (Photinus pyralis, UniProt P08659). The assay is described as follows: Counter Screen for Luciferase-based Assay Positives. [Related pubchem assays: 620, 618, 411 ]. A general note: Counterscreens check selectivity or assay interference.
Assay [3] addresses Glyceraldehyde-3-phosphate dehydrogenase (Homo sapiens, UniProt P04406).
A further assay relates to HT-1080. The assay is described as follows: HT1080 cell viability loss – fluorescence readout (AID 620). The settings on record: Homo sapiens. The assay is classed as functional, cell-based.
Assay [4] has as its target T3, Corticotropin-releasing factor receptor 2/Corticotropin-releasing factor-binding protein (Homo sapiens, UniProt P24387+Q13324).
T3 sequence (Q13324 whole entry): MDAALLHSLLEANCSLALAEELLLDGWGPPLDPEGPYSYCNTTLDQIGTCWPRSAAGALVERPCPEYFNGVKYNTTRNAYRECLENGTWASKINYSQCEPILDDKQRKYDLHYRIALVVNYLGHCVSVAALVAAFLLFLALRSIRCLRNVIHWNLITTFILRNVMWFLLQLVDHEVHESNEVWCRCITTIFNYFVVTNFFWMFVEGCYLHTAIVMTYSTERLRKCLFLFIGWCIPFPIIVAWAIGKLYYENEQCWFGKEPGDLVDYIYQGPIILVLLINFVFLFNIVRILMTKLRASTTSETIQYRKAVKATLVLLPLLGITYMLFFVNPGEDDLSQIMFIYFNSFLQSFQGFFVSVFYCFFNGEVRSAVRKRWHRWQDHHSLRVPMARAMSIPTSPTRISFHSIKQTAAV
T3 sequence (P24387 whole entry): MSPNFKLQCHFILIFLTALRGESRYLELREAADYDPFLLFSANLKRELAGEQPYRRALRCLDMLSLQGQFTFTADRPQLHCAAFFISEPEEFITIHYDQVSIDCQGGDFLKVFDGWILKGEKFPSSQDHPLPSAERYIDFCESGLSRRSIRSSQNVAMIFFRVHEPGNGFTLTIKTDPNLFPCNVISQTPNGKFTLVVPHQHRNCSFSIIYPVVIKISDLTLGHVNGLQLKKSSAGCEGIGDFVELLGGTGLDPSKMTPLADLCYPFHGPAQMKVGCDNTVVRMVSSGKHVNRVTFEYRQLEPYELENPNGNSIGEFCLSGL
The assay is described as follows: activators of CRF receptor 2 with binding protein – uHTS hits, confirmation (AID 602473). The conditions noted are these: read-out: EC50_Mean. The assay is classed as functional.

The nature of assay [5]: luciferase reporter signal suppression in cells – H4 neuroglioma cells, luminescence, dose response (AID 1990). The format is functional, cell-based.
A short description of assay [6]: Luminescence Cell-Based Dose Response HTS to Identify Inhibitors of 5'UTR Stem-Loop Driven Prion Protein mRNA Translation in H4 Neuroglioblastoma Cells. [Related pubchem assays: 1827 (Project Summary), 1813 (Primary HTS)]. The assay is classed as functional.
A short description of assay [7]: alpha-synuclein stem-loop luciferase translation blockers – H4 neuroglioma cells, luminescence, confirmation (AID 1988). The format is functional, cell-based.
Assay [8] is described as follows: viability of PTEN-deleted HCT116 cells – cell-based, HCT116 PTEN knockout, dose response (AID 1047).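 Note: HCT116 colon tumor cells with PTEN knocked out; cells exposed to compound for 60 hours before readout; potency for loss of cell viability measured by luminescence.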 The format is functional.
Assay [9] can be described thus: viability of HCT116 lacking mutant beta-catenin – cell-based, human colon tumor, dose response (AID 1045).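 Note: HCT116 colon tumor cells with beta catenin knocked out; cells exposed to compound for 60 hours.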 The assay is classed as functional.
The target in assay [10] is T4, Ubiquitin-conjugating enzyme E2 N (Homo sapiens, UniProt P61088).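 Note: Dose-response confirmation in a TR-FRET assay detecting UBC13-driven polyubiquitin chain formation, inhibition measured.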
T4 sequence (P61088 whole entry): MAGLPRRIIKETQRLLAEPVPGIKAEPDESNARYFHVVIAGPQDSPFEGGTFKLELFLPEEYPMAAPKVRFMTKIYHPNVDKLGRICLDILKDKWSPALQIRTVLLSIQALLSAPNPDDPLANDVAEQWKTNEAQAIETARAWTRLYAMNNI
The assay is classed as functional.

The target of assay [11] is T5, Voltage-gated N-type calcium channel alpha-1B subunit/Amyloid beta A4 precursor protein-binding family A member 1 (Homo sapiens, UniProt Q00975+Q02410). The format is protein assay.
T5 sequence (Q00975 whole entry): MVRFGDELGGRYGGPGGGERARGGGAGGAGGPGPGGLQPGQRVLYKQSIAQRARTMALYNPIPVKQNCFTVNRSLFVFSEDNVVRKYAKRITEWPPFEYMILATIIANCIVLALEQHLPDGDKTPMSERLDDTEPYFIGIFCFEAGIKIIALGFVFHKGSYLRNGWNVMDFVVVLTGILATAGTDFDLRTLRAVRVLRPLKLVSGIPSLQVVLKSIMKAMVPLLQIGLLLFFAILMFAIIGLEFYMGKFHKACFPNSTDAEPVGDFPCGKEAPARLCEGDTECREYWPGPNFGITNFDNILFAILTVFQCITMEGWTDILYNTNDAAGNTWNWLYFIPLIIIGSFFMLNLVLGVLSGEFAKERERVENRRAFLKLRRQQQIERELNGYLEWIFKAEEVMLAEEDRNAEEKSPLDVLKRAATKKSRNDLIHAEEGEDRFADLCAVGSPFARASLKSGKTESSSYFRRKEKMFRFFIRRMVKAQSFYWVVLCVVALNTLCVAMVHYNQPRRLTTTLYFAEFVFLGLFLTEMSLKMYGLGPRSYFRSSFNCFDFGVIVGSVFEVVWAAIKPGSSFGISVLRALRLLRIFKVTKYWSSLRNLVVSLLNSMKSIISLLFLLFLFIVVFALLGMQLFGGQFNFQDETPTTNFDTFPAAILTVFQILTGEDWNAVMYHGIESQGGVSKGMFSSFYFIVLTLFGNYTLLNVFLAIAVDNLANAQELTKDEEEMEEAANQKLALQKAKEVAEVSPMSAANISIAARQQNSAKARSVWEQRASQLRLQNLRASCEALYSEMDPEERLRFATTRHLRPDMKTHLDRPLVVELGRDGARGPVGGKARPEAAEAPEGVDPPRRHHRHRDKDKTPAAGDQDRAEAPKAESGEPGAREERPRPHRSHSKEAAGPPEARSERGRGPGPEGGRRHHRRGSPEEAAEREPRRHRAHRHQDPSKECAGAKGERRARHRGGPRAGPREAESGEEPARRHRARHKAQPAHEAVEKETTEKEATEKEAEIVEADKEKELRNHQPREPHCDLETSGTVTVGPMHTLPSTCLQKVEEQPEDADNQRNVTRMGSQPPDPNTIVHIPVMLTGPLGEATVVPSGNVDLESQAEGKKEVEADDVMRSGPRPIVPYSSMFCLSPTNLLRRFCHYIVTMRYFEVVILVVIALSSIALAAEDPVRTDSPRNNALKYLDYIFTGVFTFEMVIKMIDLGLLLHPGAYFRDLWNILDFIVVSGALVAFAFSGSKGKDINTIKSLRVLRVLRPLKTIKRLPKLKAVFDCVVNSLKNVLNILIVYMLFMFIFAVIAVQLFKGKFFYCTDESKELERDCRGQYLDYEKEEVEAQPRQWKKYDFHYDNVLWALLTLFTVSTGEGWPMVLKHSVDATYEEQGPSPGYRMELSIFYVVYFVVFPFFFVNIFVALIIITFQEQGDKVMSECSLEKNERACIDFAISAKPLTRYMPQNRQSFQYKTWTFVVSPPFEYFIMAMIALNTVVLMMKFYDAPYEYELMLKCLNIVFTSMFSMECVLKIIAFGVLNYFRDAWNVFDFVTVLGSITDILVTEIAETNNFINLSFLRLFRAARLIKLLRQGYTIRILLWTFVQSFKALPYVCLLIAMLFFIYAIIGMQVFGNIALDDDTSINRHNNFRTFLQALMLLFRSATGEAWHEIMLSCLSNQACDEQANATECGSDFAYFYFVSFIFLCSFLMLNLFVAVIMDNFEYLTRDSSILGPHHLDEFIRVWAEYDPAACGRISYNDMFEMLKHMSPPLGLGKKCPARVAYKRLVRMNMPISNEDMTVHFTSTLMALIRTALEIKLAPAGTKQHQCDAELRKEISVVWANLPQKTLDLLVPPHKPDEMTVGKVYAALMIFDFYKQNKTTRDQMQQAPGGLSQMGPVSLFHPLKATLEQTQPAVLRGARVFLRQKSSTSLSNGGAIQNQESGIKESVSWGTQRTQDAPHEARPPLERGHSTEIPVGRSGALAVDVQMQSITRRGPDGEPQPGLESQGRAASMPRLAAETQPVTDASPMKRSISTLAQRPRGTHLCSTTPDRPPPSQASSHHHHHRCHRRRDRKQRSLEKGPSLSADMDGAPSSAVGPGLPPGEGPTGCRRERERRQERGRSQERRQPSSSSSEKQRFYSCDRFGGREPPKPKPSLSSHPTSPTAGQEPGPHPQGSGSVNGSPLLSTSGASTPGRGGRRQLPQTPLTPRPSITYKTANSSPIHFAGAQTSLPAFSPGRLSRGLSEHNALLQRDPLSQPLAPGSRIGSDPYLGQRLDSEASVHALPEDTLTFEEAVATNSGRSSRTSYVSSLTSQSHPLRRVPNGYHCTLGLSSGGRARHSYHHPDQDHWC
T5 sequence (Q02410 whole entry): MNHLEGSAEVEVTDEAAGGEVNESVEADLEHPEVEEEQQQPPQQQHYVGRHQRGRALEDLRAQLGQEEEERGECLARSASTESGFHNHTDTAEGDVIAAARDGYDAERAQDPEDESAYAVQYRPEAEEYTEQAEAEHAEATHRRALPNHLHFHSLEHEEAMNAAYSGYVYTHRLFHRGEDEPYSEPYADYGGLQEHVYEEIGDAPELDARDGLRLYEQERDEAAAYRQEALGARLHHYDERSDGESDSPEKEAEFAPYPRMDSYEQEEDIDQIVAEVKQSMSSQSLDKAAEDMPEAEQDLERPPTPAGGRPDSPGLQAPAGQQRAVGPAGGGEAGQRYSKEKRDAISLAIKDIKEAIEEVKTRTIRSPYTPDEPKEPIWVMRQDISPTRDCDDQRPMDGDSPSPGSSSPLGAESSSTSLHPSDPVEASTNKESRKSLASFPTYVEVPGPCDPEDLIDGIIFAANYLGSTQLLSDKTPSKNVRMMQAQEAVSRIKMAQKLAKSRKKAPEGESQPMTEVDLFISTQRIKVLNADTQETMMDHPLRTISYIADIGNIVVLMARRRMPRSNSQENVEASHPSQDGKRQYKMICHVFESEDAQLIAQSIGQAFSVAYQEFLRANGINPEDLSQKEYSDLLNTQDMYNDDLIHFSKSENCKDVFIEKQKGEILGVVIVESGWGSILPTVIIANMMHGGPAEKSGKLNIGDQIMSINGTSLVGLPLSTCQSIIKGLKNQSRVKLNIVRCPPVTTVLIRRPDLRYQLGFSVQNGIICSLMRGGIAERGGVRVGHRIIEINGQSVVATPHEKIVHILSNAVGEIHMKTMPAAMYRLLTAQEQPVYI
The target of assay [12] is T5, Voltage-gated N-type calcium channel alpha-1B subunit/Amyloid beta A4 precursor protein-binding family A member 1. The assay is classed as protein assay. This is another data set of the same source.
Assay [13] deals with Neurotensin receptor type 1 (Homo sapiens, UniProt P30989). The assay is classed as functional.
The target in assay [14] is Glucose-6-phosphate 1-dehydrogenase (Homo sapiens, UniProt P11413). Nature of the assay: inhibition of Homo sapiens G6PD, dose series – biochemical, fluorescence, selectivity assay for P. falciparum G6PD inhibitor project, dose response (AID 504792). The format is functional.
The target of assay [15] is Heat shock protein HSP 90-alpha (Homo sapiens, UniProt P07900). The format is functional, organism-based.
Assay [16] has as its target T6, Short transient receptor potential channel 4 (Mus musculus, UniProt Q9QUQ5).
T6 sequence (Q9QUQ5 whole entry): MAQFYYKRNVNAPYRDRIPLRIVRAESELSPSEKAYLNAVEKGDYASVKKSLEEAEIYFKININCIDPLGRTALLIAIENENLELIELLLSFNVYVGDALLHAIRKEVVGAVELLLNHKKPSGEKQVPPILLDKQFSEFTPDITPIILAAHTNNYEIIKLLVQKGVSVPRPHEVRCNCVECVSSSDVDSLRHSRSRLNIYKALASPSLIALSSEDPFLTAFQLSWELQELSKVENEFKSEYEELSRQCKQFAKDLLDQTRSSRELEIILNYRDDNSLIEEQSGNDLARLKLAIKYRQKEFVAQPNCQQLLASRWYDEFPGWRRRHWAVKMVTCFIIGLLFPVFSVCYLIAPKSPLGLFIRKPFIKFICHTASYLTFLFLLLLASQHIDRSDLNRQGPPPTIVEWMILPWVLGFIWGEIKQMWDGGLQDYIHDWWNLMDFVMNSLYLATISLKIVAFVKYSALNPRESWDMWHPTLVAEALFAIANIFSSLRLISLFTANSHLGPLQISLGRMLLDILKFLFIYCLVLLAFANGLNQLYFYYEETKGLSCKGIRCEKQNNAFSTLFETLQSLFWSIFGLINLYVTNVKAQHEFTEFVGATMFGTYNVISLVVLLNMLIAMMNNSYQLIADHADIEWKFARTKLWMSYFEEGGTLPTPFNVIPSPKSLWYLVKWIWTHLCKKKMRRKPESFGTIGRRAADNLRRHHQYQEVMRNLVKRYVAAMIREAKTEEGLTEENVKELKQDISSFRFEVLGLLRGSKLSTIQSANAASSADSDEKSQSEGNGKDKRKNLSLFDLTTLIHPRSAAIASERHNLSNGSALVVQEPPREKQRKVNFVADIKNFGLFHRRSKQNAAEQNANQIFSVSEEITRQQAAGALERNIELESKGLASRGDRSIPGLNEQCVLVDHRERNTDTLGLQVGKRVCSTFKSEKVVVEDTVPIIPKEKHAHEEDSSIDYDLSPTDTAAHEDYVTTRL
Nature of the assay: block of DAMGO-driven TRPC4 calcium entry – cell-based, HEK293 TRPC4/mu-opioid, Fluo-4 calcium, dose response (AID 434942).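 Note: potency of inhibitors blocking the TRPC4 calcium response.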 The format is functional.

Assay [17] has as its target DNA dC->dU-editing enzyme APOBEC-3A (Homo sapiens, UniProt P31941). The assay is described as follows: Dose Response confirmation of small molecule APOBEC3A DNA Deaminase Inhibitors via a fluorescence-based single-stranded DNA deaminase assay. [Related pubchem assays (depositor defined):AID493011, AID493024]. The format is functional.
The target in assay [18] is T7, DNA dC->dU-editing enzyme APOBEC-3G (Homo sapiens, UniProt Q9HC16). The format is functional.
In assay [19] the target is T7, DNA dC->dU-editing enzyme APOBEC-3G. Nature of the assay: Dose Response confirmation of small molecule APOBEC3G DNA Deaminase Inhibitors via a fluorescence-based single-stranded DNA deaminase assay. [Related pubchem assays (depositor defined):AID493012, AID493028]. The assay is classed as functional.

Sequence of Luciferin 4-monooxygenase (P08659 whole entry): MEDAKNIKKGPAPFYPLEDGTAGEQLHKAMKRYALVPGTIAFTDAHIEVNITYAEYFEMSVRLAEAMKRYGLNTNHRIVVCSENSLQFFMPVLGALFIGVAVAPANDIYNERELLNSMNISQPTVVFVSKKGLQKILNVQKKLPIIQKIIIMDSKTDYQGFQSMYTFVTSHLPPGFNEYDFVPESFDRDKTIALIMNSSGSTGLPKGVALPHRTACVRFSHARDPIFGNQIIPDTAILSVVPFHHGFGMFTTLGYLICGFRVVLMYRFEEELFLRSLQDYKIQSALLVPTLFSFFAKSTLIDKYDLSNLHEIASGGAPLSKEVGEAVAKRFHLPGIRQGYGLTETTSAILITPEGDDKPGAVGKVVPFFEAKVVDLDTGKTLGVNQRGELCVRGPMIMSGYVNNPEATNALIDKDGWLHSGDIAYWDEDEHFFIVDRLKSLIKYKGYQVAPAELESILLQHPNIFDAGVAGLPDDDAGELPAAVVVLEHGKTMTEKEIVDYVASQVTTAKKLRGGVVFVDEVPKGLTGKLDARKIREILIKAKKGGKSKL
Sequence of Glyceraldehyde-3-phosphate dehydrogenase (P04406 whole entry): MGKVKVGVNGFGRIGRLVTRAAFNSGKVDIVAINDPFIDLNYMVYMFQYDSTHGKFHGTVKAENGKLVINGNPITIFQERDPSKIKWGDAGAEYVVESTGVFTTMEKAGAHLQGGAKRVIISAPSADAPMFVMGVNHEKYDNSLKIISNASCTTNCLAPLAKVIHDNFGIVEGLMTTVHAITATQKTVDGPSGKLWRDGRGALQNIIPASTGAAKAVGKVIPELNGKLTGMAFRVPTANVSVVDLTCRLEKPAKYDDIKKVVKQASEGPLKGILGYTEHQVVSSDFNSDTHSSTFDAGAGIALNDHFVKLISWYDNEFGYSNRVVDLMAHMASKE

On to `COc1ccc2cc3c(N)nn(C(=O)Cc4ccc(Cl)cc4)c3nc2c1`, for which, on Estrogen receptor, the IC50 is 24.8 µM (active).

For the compound `N#C/C(=C\c1ccc(-c2cccc([N+](=O)[O-])c2)o1)C(=O)Nc1nc(-c2cccs2)cs1`, the IC50 (in assay [1]; on Beta-galactosidase) was > 66.6 µM (inactive) each time.

As to `Cc1ccc(C(=O)[C@@H]2[C@@H]3[C@@H](C(=O)[C@@H]4OC[C@H]3O4)[C@@H]3C=Cc4ccccc4N23)cc1`, the AC50 at Cytochrome P450 2D6 was 20 µM (inconclusive).

Consider `O=S(=O)(NCc1csc(-c2cccnc2)n1)c1cccs1`, for which the IC50 on Estrogen receptor was 18 µM (active).

As to `COCCn1c(C)cc(C(=O)CSc2ccc(NC(C)=O)cc2)c1C`, the EC50 in assay [2] is 3.66 µM (active); with HT-1080, > 50 µM (not active); in assay [4] it was > 53 µM (inactive). Moreover, the IC50 in assay [3] is > 100 µM (not active).

For the compound `c1cc2c(cc1C1CCCCC1)c1c3n2CCCNC3CCC1` (stereo not drawn), the EC50 in [5] is > 120 µM (not active); in [6] it was 71.1 µM (active); in assay [7], 18 µM (active); in [8], 5.92 µM (active); in assay [9], 4.46 µM (active). The results for the IC50 (in [1]; in assay [10]; at Beta-galactosidase) were 19.8 µM (active), > 20 µM (inactive) and > 66.6 µM (inactive), respectively.

For the compound `CC(=O)Nc1ccc(NC(=O)c2ccc(NC(=O)c3ccccc3)cc2)cc1`, the IC50 in assay [11] is 6.5 µM (active); in assay [12], > 50 µM (inactive).

Take `Cn1cc(Cl)c(C(=O)Nc2nc3ccc([N+](=O)[O-])cc3s2)n1`: the values for the half-inhibitory concentration (IC50) in assay [11] and in assay [12] were 5.21 µM (active) and > 50 µM (inactive), respectively.

For `CCCCN(C)C(=O)c1cc2cc3ccc(OC)cc3nc2s1`, the EC50 in [2] was 0.22 µM (active); in the assay on HT-1080, > 50 µM (not active).

As for `COC(=O)c1ccc(/C=C/C(=O)OCC(=O)Nc2sccc2C(N)=O)cc1`, the EC50 in [13] is 18.9 µM (active).

In the case of `CCC(=O)OCOc1ccc(/C=C2/CCC(CN(C)C)C2=O)cc1` (stereo not drawn), the IC50 in assay [14] is > 80 µM (inactive); in [1], 15.5 µM (active); at Beta-galactosidase it was > 66.6 µM (inactive). The AC50 in assay [15] is 2.85 µM (active).

`COc1cccc(CNC(=O)CCC2CCCN(Cc3cc(Cl)ccc3O)C2)c1` (stereo not drawn): in assay [16], the EC50 is 2.11 µM (active).

With `CC12CCC(C/C1=N/OC(=O)c1cccc([N+](=O)[O-])c1)C2(C)C` (stereo not drawn), in assay [16], the EC50 was 0.531 µM (active).

In the case of `O=[N+]([O-])c1cc2c(cc1/C=N/Nc1nc(O)c3ccccc3n1)OCO2`, the IC50 in assay [17] is 3.63 µM (active); in [18], 4.7 µM (active).

Consider `CCOC(=O)c1c(N)sn(-c2ccccc2C)c1=S`, for which the IC50 in assay [19] is 45.6 µM (active).

As a reminder, the IC50 is the concentration needed to halve the response being measured.
